Test results published in patent US20040014212A1, “Preparation and xenotransplantation or porcine islets” (priority 2000, published 2004).

Assays:
[1] = system: porcine islets; assay: Static glucose stimulation (SGS): insulin secretion of cultured porcine islets; assay type: cell-based; conditions: for effect of exposure beyond 24 hrs on insulin production in response to glucose: post isolation
[2] = system: porcine islets; assay: as above; assay type: cell-based
Description: Static glucose stimulation (SGS) is used to assess in vitro function of the porcine islets by exposing them to low and high concentrations of glucose and theophylline. Determination of the in vitro insulin secretory capacity is undertaken on both free islets (after 3 days in culture) and after their subsequent encapsulation or confinement.
Keep the cells 3 days in culture before Static Glucose Stimulation (SGS). SGS involves exposure of the cells to low and high concentration of glucose to check insulin production. Using 0.1 ug/ml concentration add IGF1 and GPE to two plates 24 hours before SGS (day 2 after isolation)

[3] = Incubated 24 hrs with 1.0 ug/ml IgF-1

Molecule	increase in insulin secretion in response to glucose challenge ([1]; Lidocaine during digestion, after 3 days in culture)	Insulin secretion in response to 19.4 mM Glucose + 10 mM Theophyline After 3 days culture Post isolation ([1]; islets from Collagenase digestion, with or without 1 mM Lidocaine)	persistence of increased insulin production post exposure [1]	Insulin secretion In response to 19.4 mM Glucose + 10 mM Theophyline, increase Compared to control ([1]; 3 days post IgF-1 Exposure)	Insulin secretion In response to 19.4 mM Glucose + 10 mM Theophyline, increase Compared to control ([1]; 14 days post IgF-1 Exposure)	Insulin secretion In response to 19.4 mM Glucose + 10 mM Theophyline 7 days post isolation ([1]; Incubated 7 days with 0.1 ug/ml IgF-1)	effect of increasing the concentration in culture on insulin response ([1]; above the sufficient concentration)	effect of exposure beyond 24 hrs on insulin production in response to glucose [1]	effect of withdrawal of Nicotinamide from the culture media on islet insulin production [2]	concentration in culture sufficient to produce optimal insulin secretion during glucose challenge ([2]; IgF-1 in culture)	Insulin secretion In response to 19.4 mM Glucose + 10 mM Theophyline 7 days post isolation [2, 3]	Insulin secretion In response to 19.4 mM Glucose + 10 mM Theophyline After 3 days [2, 3]	Insulin secretion In response to 19.4 mM Glucose + 10 mM Theophyline After 3 days culture Post isolation ([2]; Incubated 3 days With 0.1 ug/ml IgF-1 Without Nicotinamide)	increase of insulin response to glucose ([2]; porcine islets in culture exposed to IgF-1)	Insulin secretion In response to 19.4 mM Glucose + 10 mM Theophyline After 3 days culture Post isolation ([1]; Incubated 24 hrs With 0.1 ug/ml IgF-2 day 1, second sub-table)	Insulin secretion In response to 19.4 mM Glucose + 10 mM Theophyline After 3 days culture Post isolation ([1]; Incubated 7 days with 0.1 ug/ml IgF-2)	effect on insulin production of porcine islet cells ([2]; 0.1 μg/ml during culturing, initial exposure of 24 hrs)
CCN(CC)CC(=O)Nc1c(C)cccc1C [Lidocaine, reference compound]	3 fold	163.8 uU/hr/100 IEQ															
IgF-1: Human Insulin-like Growth Factor I, a potent mitogenic growth factor			≥ 14 days	1.5-fold increase	1.3-fold increase	58 uU/hr/100 IEQ	No further benefit	no increased benefit	eliminated the benefit of IgF-1	0.1 µg/mL	57.5 uU/hr/100 IEQ	56.8 uU/hr/100 IEQ	47.6 uU/hr/100 IEQ	≤ 3 fold			
IgF-2: insulin-like growth factor II			≤ 3 days					failed to increase							32 uU/hr/100 IEQ	38.4 uU/hr/100 IEQ	appeared to increase
